# From article PMC10258794, “To Fold or Not to Fold: Diastereomeric Optimization of an α-Helical Antimicrobial Peptide” (Journal of Medicinal Chemistry, 2023)
# Where two headings read alike, the source gives them in different places.
# Assays:
# [1] = EYPC vesicle leakage assay; type: biochemical; conditions: 10 μg/mL of compound; 10 mM TRIS, 107 mM NaCl, pH 7.4
# Experimental: 5(6)-carboxyfluorescein (CF) was purchased from Sigma. EYPC, EYPG, and a Mini-Extruder were purchased from Avanti Polar Lipids. Egg PC or Egg PG thin lipid layers were prepared by evaporating a solution of 100 mg of EYPC or EYPG in 4 mL of MeOH/CHCl3 (1:1) on a rotary evaporator at room temperature and then dried in vacuo overnight. […] Extravesicular components were removed by gel filtration (Sephadex G-50) with 10 mM TRIS, 107 mM NaCl, pH 7.4 buffer. Final conditions: ∼2.5 mM PC or PG; inside: 50 mM CF, 10 mM TRIS, 10 mM NaCl, pH 7.4 buffer; outside: 10 mM TRIS, 107 mM NaCl, pH 7.4. […] The CF efflux was monitored at λem 517 nm (λex 492 nm) as a function of time after addition of the desired volume of peptide from 2 mg/mL stock in mQ water at t = 45 s, 10 and 50 μg/mL were monitored for both EYPC and EYPG. […] Fluorescence intensities were then normalized to the maximal emission intensity using I(t) = (It – I0)/(I∞ – I0) where I0 = It at peptide addition, I∞ = It at saturation of lysis.
# [2] = system: E. coli W3110
# Outline: (§1)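 Growth inhibition is judged by eye after MTT addition, the MIC being the lowest compound concentration whose well stays yellow. Bacteria from overnight LB cultures are diluted in MH medium at pH 7.4 to roughly 5 × 10^5 CFU and incubated with doubling dilutions at 37 °C, unshaken, 16–20 h.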
# [3] = system: P. aeruginosa PAO1
# Outline: as §1
# [4] = system: Pseudomonas aeruginosa, Klebsiella pneumoniae, Acinetobacter baumannii, Escherichia coli, and methicillin-resistant Staphylococcus aureus; conditions: summary of Table 1
# Outline: as §1
# [5] = system: A. baumannii ATCC19606
# Outline: as §1
# [6] = system: Stenotrophomonas maltophilia; assay: microbe, parasite or virus in culture; type: cell-based; conditions: pH 7.4
# Experimental: (§2) Antimicrobial activity was determined for all peptides on E. coli W3110, P. aeruginosa PAO1, A. baumannii ATCC19606, K. pneumoniae NCTC418, and methicillin-resistant S. aureus COL and for selected peptides on P. aeruginosa PA14 and the polymyxin B-resistant derivatives PA14 4.13, PA14 4.18, and PA14 2P4 as well as the clinical isolates ZEM-1A and ZEM9A, K. pneumoniae OXA-48, Enterobacter cloacae, Stenotrophomonas maltophilia, B. cenocepacia, and Staphylococus epidermis. To determine the MIC, the broth microdilution method was used.[75] A single bacterial colony was grown in LB medium overnight at 37 °C and 180 rpm shaking. The compounds were prepared as stock solutions of 2 mg/mL in sterilized milliQ deionized water, added to the first well of 96-well sterile, polypropylene round-bottom microtiter plates (TPP, untreated, Corning Incorporated, Kennebunk, USA), and diluted serially by 1/2. […] The bacterial inoculum was prepared by measuring the absorbance of the overnight culture, which was diluted to concentration of the bacteria was quantified by measuring absorbance at 600 nm and diluted to an OD600 of 0.022 in MH medium pH 7.4 (Sigma-Aldrich, Buchs, Switzerland). The sample solutions (150 μL) were mixed with 4 μL of diluted bacterial suspension with a final inoculation of about 5 × 10^5 CFU. For each test, two columns of the plate were kept for sterility control (MH medium only) and growth control (MH medium with bacterial inoculum, no compound). […] The plates were incubated at 37 °C for 16–20 h under static conditions. 15 μL of 3-(4,5-dimethylthiazol-2-yl)-2,5-diphenyltetrazolium bromide (MTT)[76] (1 mg/mL in sterilized milliQ deionized water) was added to each well, and the plates were incubated at room temperature until MTT staining was completed. The MIC was defined as the lowest concentration of the dendrimer that inhibits the visible growth of the tested bacteria (yellow) with the unaided eye.
# [7] = system: S. aureus COL MRSA; conditions: for MIC S. aureus COL MRSA: MH broth pH 7.4, 16–20 h, 37 °C; for MIC S. aureus COL: supplementary CSV, ranges of Table 1 given as one number
# Outline: as §1
# [8] = system: K. pneumoniae NCTC418
# Outline: as §1
# [9] = system: A549 cells; assay: Alamar blue cytotoxicity, A549; type: cell-based, human; conditions: 24 h, mean ± SD, n = 3, read-out: Toxicity on A549 lung cancern cells
# Experimental: (§3) The A549 human lung adenocarcinoma cells are derived from a patient and were kindly given to us by Dr. Georgia Konstatinidou (Pharmacology Institute, Bern University). HEK293T cells were obtained from ATCC (CRL-11268). A549 and HEK293 were cultured in an incubator at 37 °C with 5% CO2 in RPMI-1640 (Gibco) and DMEM (Gibco) containing 10% fetal bovine serum (Thermo Fisher), 100 I.U./mL penicillin, and 100 μg/mL streptomycin (Gibco).
# (§4) The viability of the cells was assessed with an AlamarBlue assay (ThermoFisher). Cells were seeded into 96-well plates, 4000 cells/well (HEK293) and 8000 cells/well (A549), the day before the experiment. Cells were then treated with the increasing concentration of the compound and incubated for 24 h at 37 °C in the presence of 5% CO2. The next day, the medium was removed and replaced by a 10% AlamarBlue solution in full growth medium (DMEM or RPMI-1640). The cells were incubated for 3–5 h at 37 °C with 5% CO2 in a humidified atmosphere. The fluorescence was then measured on a Tecan Infinite M1000 Pro plate reader at λex 560 nm and λem 590 nm. The value was normalized according to the untreated cells.
# [10] = system: S. aureus Newman; conditions: for MIC S. aureus Newman: MH broth pH 7.4, 16–20 h, 37 °C; for MIC S. aureus Newmann: supplementary CSV
# [11] = system: Staphylococcus epidermis; assay: MIC broth microdilution, Staphylococcus epidermis; type: cell-based; conditions: pH 7.4
# Experimental: as §2
# [12] = system: K. pneumoniae Oxa-48; assay: MIC broth microdilution, K. pneumoniae Oxa-48; type: cell-based, Klebsiella pneumoniae; conditions: MDR strain; MH broth pH 7.4, 16–20 h, 37 °C
# Experimental: as §2
# [13] = system: HEK293 cells; assay: Alamar blue cytotoxicity, HEK293; type: cell-based, human; conditions: 24 h, mean ± SD, n = 3, read-out: Toxicity on HEK293 cells
# Experimental: as §3, §4
# [14] = system: Enterobacter cloacae; assay: microbe, parasite or virus in culture; conditions: pH 7.4
# Outline: as §1
# [15] = system: PA14 4.18 (pmrB); assay: microbe, parasite or virus in culture; conditions: supplementary CSV
# Outline: as §1
# [16] = system: Burkolderia cenocepacia; assay: microbe, parasite or virus in culture; conditions: for MIC Burkolderia cenocepacia: MDR strain, MH broth pH 7.4, 16–20 h, 37 °C
# [17] = system: P. aeruginosa PA14; assay: microbe, parasite or virus in culture; conditions: for MIC PA14: MH broth pH 7.4, 16–20 h, 37 °C; for MIC P. aeruginosa PA14: supplementary CSV
# Outline: as §1
# [18] = system: PA14 2P4 (pmrB); assay: microbe, parasite or virus in culture; conditions: supplementary CSV
# Outline: as §1
# [19] = system: P. aeruginosa ZEM-1A; assay: microbe, parasite or virus in culture; conditions: pH 7.4
# Outline: as §1
# [20] = system: PA14 4.13 (phoQ); assay: microbe, parasite or virus in culture; conditions: supplementary CSV
# Outline: as §1
# [21] = system: P. aeruginosa ZEM9A; assay: microbe, parasite or virus in culture; type: cell-based, Pseudomonas aeruginosa; conditions: pH 7.4
# Experimental: as §2
# [22] = MH broth pH 7.4, 16–20 h, 37 °C
# [23] = supplementary CSV, ranges of Table 1 given as one number
Compound,EYPC vesicle leakage (%) [1] [%],"MIC E. coli W3110 [2, 22] [µg/mL]","MIC E. coli W3110 [2, 23] [µg/mL]","MIC P. aeruginosa PAO1 [3, 22] [µg/mL]","MIC P. aeruginosa PAO1 [3, 23] [µg/mL]","MIC, span over E. coli, P. aeruginosa, and A. baumannii [4] [µg/mL]","MIC A. baumannii ATCC19606 [5, 22] [µg/mL]","MIC A. baumannii ATCC19606 [5, 23] [µg/mL]",MIC Stenotrophomonas maltophilia [6] [µg/mL],MIC S. aureus COL MRSA [7] [µg/mL],MIC S. aureus COL [7] [µg/mL],"MIC K. pneumoniae NCTC418 [8, 22] [µg/mL]","MIC K. pneumoniae NCTC418 [8, 23] [µg/mL]",IC50 [9] [µM],MIC S. aureus Newman [10] [µg/mL],MIC S. aureus Newmann [10] [µg/mL],MIC Staphylococcus epidermis [11] [µg/mL],MIC K. pneumoniae Oxa-48 [12] [µg/mL],IC50 [13] [µM],MIC Enterobacter cloacae [14] [µg/mL],also measured
"CC(C)C[C@H](NC(=O)[C@H](CC(C)C)NC(=O)[C@@H](CC(C)C)NC(=O)[C@H](CCCCN)NC(=O)[C@@H](CC(C)C)NC(=O)[C@@H](CC(C)C)NC(=O)[C@H](CCCCN)NC(=O)[C@@H](CC(C)C)NC(=O)[C@@H](CC(C)C)NC(=O)[C@H](CCCCN)NC(=O)[C@@H](N)CCCCN)C(N)=O [HP25, KKllKllKlLL]",4,8 to 16,12,8 to 16,12,4 to 32,32,32,,,,,,,,,,,,,
"CC(C)C[C@H](NC(=O)[C@H](CC(C)C)NC(=O)[C@H](CC(C)C)NC(=O)[C@H](CCCCN)NC(=O)[C@H](CC(C)C)NC(=O)[C@H](CC(C)C)NC(=O)[C@H](CCCCN)NC(=O)[C@@H](CC(C)C)NC(=O)[C@H](CC(C)C)NC(=O)[C@@H](CCCCN)NC(=O)[C@@H](N)CCCCN)C(N)=O [HP4, KkLlKLLKLLL]",,2 to 4,3,2 to 4,3,,2 to 4,3,2,2 to 4,3,2,2,4.6 ± 4.9,2,2,2,2,43.7 ± 0.8,2,MIC P. aeruginosa PA14 4.18 [15]: 32 µg/mL; MIC Burkolderia cenocepacia [16]: >64 µg/mL; MIC PA14 [17]: 2 µg/mL; MIC P. aeruginosa PA14 [17]: 2 µg/mL; MIC P. aeruginosaPA14 2P4 [18]: 64 µg/mL; MIC ZEM-1A [19]: 2 µg/mL; MIC P. aeruginosa PA14 4.13 [20]: 4 µg/mL; MIC ZEM9A [21]: 4 µg/mL
"CC(C)C[C@H](NC(=O)[C@H](CC(C)C)NC(=O)[C@H](CC(C)C)NC(=O)[C@@H](CCCCN)NC(=O)[C@@H](CC(C)C)NC(=O)[C@@H](CC(C)C)NC(=O)[C@@H](CCCCN)NC(=O)[C@H](CC(C)C)NC(=O)[C@H](CC(C)C)NC(=O)[C@H](CCCCN)NC(=O)[C@@H](N)CCCCN)C(N)=O [HP13, KKLLkllkLLL]",8,4 to 8,6,16 to 32,24,4 to 32,16 to 32,24,,,,,,,,,,,,,
"CC(C)C[C@H](NC(=O)[C@H](CC(C)C)NC(=O)[C@H](CC(C)C)NC(=O)[C@H](CCCCN)NC(=O)[C@H](CC(C)C)NC(=O)[C@H](CC(C)C)NC(=O)[C@@H](CCCCN)NC(=O)[C@H](CC(C)C)NC(=O)[C@H](CC(C)C)NC(=O)[C@@H](CCCCN)NC(=O)[C@H](N)CCCCN)C(N)=O [HP10, kkLLkLLKLLL]",,2,,4,4,,2,2,2,2,2,4,4,15 ± 0.7,2,2,2,2,75.1 ± 1.7,2,MIC P. aeruginosa PA14 4.18 [15]: 16 µg/mL; MIC Burkolderia cenocepacia [16]: >64 µg/mL; MIC B. cenocepacia ([16]; supplementary CSV): > 64 µg/mL; MIC PA14 [17]: 2 µg/mL; MIC P. aeruginosa PA14 [17]: 2 µg/mL; MIC P. aeruginosaPA14 2P4 [18]: 32 µg/mL; MIC ZEM-1A [19]: 2 µg/mL; MIC P. aeruginosa PA14 4.13 [20]: 4 µg/mL; MIC ZEM9A [21]: 4 µg/mL
